Counter-ions that a name gives are not always drawn.
Tests used:
TEL-PDGFRα-BaF3 = assay: Proliferation of TEL-PDGFRα-BaF3 cells, CCK8 cell viability assay; format: cell-based; conditions: Mus musculus, 72 hours, stably expressing PDGFRα kinase
From the text: (§1) In this example the following cells were used: […] (purchased from ATCC), mouse P210-BaF3 (stably expressing BCR-ABL mutant activated kinase), mouse P210/T315I-BaF3 (stably expressing BCR-ABL/T315I mutant activated kinase), mouse FLT3-ITD-BaF3 (stably expressing FLT3/ITD mutant activated kinase), mouse TEL-FLT3-BaF3 (stably expressing FLT3 kinase), mouse TEL-cKIT-BaF3 (stably expressing cKIT kinase), mouse BaF3-tel/T670I-cKit (stably expressing cKIT/T670I mutant activated kinase), mouse Tel-VEGFR2-BaF3 (stably expressing VEGFR2 kinase), mouse Tel-PDGFRα-BaF3 (stably expressing PDGFRα kinase), mouse Tel-PDGFRβ-BaF3 (stably expressing PDGFRβ kinase), mouse Tel-RET-BaF3 (stably expressing RET kinase). The above cell lines were all constructed by our laboratory according to the following method: the kinase region sequences of human P210, P210/T315I, FLT3/ITD, FLT3, cKIT, cKIT/T670I, VEGFR2, PDGFRα, PDGFRβ, RET were respectively amplified by PCR, and inserted into MSCV-Puro vectors having N-terminal TEL or TPR fragments (Clontech). The vectors were stably transfected into mouse BaF3 cells by means of retrovirus, and the growth factor IL-3 were removed, eventually obtaining cell lines that depend on transferred protein P210, P210/T315I, FLT3/ITD, FLT3, cKIT, cKIT/T670I, VEGFR2, PDGFRα, PDGFRβ, or RET.
(§2) GI50 (unit: μM) was calculated by quantifying the number of living cells based on quantitative measurement of reductive dehydrogenase in living cells with CCK8 cell viability assay kit (Bestbio, China).

TEL-PDGFRβ-BaF3 = assay: Proliferation of TEL-PDGFRβ-BaF3 cells, CCK8 cell viability assay; format: cell-based; conditions: Mus musculus, 72 hours, stably expressing PDGFRβ kinase
From the text: as §1, §2

Tel-RET-BaF3 = assay: Proliferation of Tel-RET-BaF3 cells, CCK8 cell viability assay; format: cell-based; conditions: Mus musculus, 72 hours, stably expressing RET kinase
From the text: as §1, §2

FLT3-ITD-BaF3 = assay: Proliferation of FLT3-ITD-BaF3 cells, CCK8 cell viability assay; format: cell-based; conditions: Mus musculus, 72 hours, stably expressing FLT3/ITD
From the text: as §1, §2

Tel-cKit/T670I-BaF3 = assay: Proliferation of Tel-cKit/T670I-BaF3 cells, CCK8 cell viability assay; format: cell-based; conditions: Mus musculus, 72 hours, stably expressing cKIT/T670I
From the text: as §1, §2

Tel-FLT3-BaF3 = assay: Proliferation of Tel-FLT3-BaF3 cells, CCK8 cell viability assay; format: cell-based; conditions: Mus musculus, 72 hours, stably expressing FLT3 kinase
From the text: as §1, §2

BaF3 = assay: Proliferation of BaF3 cells, CCK8 cell viability assay; format: cell-based; conditions: Mus musculus, 72 hours
From the text: as §1, §2

TEL-VEGFR2-BaF3 = assay: Proliferation of TEL-VEGFR2-BaF3 cells, CCK8 cell viability assay; format: cell-based; conditions: Mus musculus, 72 hours, stably expressing VEGFR2 kinase
From the text: as §1, §2

Tel-cKit-BaF3 = assay: Proliferation of Tel-cKit-BaF3 cells, CCK8 cell viability assay; format: cell-based, mouse; conditions: for GI50: Mus musculus, 72 hours, CCK8, stably expressing cKIT kinase
From the text: as §1, §2

P210-BaF3 = assay: Proliferation of P210-BaF3 cells, CCK8 cell viability assay; format: cell-based; conditions: Mus musculus, 72 hours, stably expressing BCR-ABL mutant activated kinase
From the text: as §1, §2

| GI50 (TEL-PDGFRα-BaF3) [nM] | GI50 (TEL-PDGFRβ-BaF3) [nM] | GI50 (Tel-RET-BaF3) [nM] | GI50 (FLT3-ITD-BaF3) [nM] | GI50 (Tel-cKit/T670I-BaF3) [nM] | GI50 (Tel-FLT3-BaF3) [nM] | GI50 (BaF3) [nM] | GI50 (TEL-VEGFR2-BaF3) [nM] | GI50 (Tel-cKit-BaF3) [nM] | GI50 (P210-BaF3) [nM] | SMILES | inhibition of cKIT (in words) (Tel-cKit-BaF3; summary of Table 2) |
| --- | --- | --- | --- | --- | --- | --- | --- | --- | --- | --- | --- |
| 86 | 170 | > 10000 | 259 | 8540 | 638 | > 10000 | 1260 | 3220 | – | Cc1ccc(NC(=O)Nc2ccc(Oc3cc(N[C@H](C)CN)ncn3)cc2)cc1C(F)(F)F [Example 113, (R)-1-(4-((6-((1-aminoprop-2-yl)amino)pyrimidin-4-yl)oxy)phenyl)-3-(4-methyl-3-(trifluoromethyl)phenyl)urea] | – |
| 5 | 30 | 3830 | 37 | 1010 | 1090 | 6050 | 1330 | 287 | – | Cc1ccc(NC(=O)Nc2ccc(Oc3cc(N4CCOC[C@H]4C)ncn3)cc2)cc1C(F)(F)F [Example 114, (R)-1-(4-methyl-3-(trifluoromethyl)phenyl)-3-(4-((6-(3-methylmorpholino)pyrimidin-4-yl)oxy)phenyl)urea] | – |
| 16 | 324 | 3880 | 9 | 7820 | 11 | > 10000 | 98 | 970 | – | CN1CCN(Cc2ccc(NC(=O)Nc3ccc(Oc4cc(NCCN)ncn4)cc3)cc2C(F)(F)F)CC1 [Example 108, 1-{4-[6-(2-amino-ethylamino)-pyrimidin-4-yloxy]-phenyl}-3-[4-(4-methyl-piperazin-1-ylmethyl)-3-trifluoromethyl-phenyl]-urea] | – |
| 60 | 270 | 6210 | 182 | 5290 | 4860 | > 10000 | 4620 | 2250 | – | Cc1ccc(NC(=O)Nc2ccc(Oc3cc(N4CCN(C(=O)OC(C)(C)C)C[C@H]4CO)ncn3)cc2)cc1C(F)(F)F [Example 110, (S)-3-(hydroxymethyl)-4-(6-(4-(3-(4-methyl-3-(trifluoromethyl)phenyl)ureido)phenoxy)pyrimidin-4-yl)piperazin-1-tert-butyl Formate] | – |
| 23 | 51 | 3820 | 58 | 886 | 599 | 4120 | 390 | 1070 | – | Cc1ccc(NC(=O)Nc2ccc(Oc3cc(N[C@H](C)CNC(=O)OC(C)(C)C)ncn3)cc2)cc1C(F)(F)F [Example 112, (R)-(2-((6-(4-(3-(4-methyl-3-(trifluoromethyl)phenyl)ureido)phenoxy)pyrimidin-4-yl)amino)propyl)aminotert-butyl Formate] | – |
| 190 | 690 | > 10000 | 141 | 8600 | 6160 | > 10000 | 1740 | 6050 | – | CC[C@@H]1CN(C(=O)OC(C)(C)C)CCN1c1cc(Oc2ccc(NC(=O)Nc3ccc(C)c(C(F)(F)F)c3)cc2)ncn1 [Example 111, (R)-3-ethyl-4-(6-(4-(3-(4-methyl-3-(trifluoromethyl)phenyl)ureido)phenoxy)pyrimidin-4-yl)piperazin-1-tert-butyl formate] | – |
| 34 | 117 | 1980 | 150 | 940 | 340 | 8120 | 508 | 2850 | – | Cc1ccc(NC(=O)Nc2ccc(Oc3cc(N4CCNC[C@@H]4C)ncn3)cc2)cc1C(F)(F)F [Example 107, (S)-1-(4-methyl-3-(trifluoromethyl)phenyl)-3-(4-((6-(2-methylpiperazin-1-yl)pyrimidin-4-yl)oxy)phenyl)urea] | – |
| 52 | 190 | 3970 | 413 | 4250 | 2190 | 9870 | 2280 | 2120 | – | Cc1ccc(NC(=O)Nc2ccc(Oc3cc(N4CCN(C(=O)CC(C)(C)C)C[C@H]4C)ncn3)cc2)cc1C(F)(F)F [Example 115, (R)-1-(4-((6-(4-(3,3-dimethylbutyryl)-2-methylpiperazin-1-yl)pyrimidin-4-yl)oxy)phenyl)-3-(4-methyl-3-(trifluoromethyl)phenyl)urea] | – |
| 13 | 392 | 460 | 7 | 3360 | 11 | 3540 | 145 | 999 | – | CCN1CCN(Cc2ccc(NC(=O)Nc3ccc(Oc4cc(NCCN)ncn4)cc3)cc2C(F)(F)F)CC1 [Example 109, 1-{4-[6-(2-amino-ethylamino)-pyrimidin-4-yloxy]-phenyl}-3-[4-(4-ethyl-piperazin-1-ylmethyl)-3-trifluoromethyl-phenyl]-urea] | – |

Second part, the molecule before the results:

| SMILES | GI50 (TEL-PDGFRα-BaF3) [nM] | GI50 (TEL-PDGFRβ-BaF3) [nM] | GI50 (Tel-RET-BaF3) [nM] | GI50 (FLT3-ITD-BaF3) [nM] | GI50 (Tel-cKit/T670I-BaF3) [nM] | GI50 (Tel-FLT3-BaF3) [nM] | GI50 (BaF3) [nM] | GI50 (TEL-VEGFR2-BaF3) [nM] | GI50 (Tel-cKit-BaF3) [nM] | GI50 (P210-BaF3) [nM] | inhibition of cKIT (in words) (Tel-cKit-BaF3; summary of Table 2) |
| --- | --- | --- | --- | --- | --- | --- | --- | --- | --- | --- | --- |
| CC(=O)Nc1cc(Oc2ccc(NC(=O)Cc3c(Cl)cccc3Cl)cc2)ncn1 [Example 6, N-[4-(6-acetylamino-pyrimidin-4-yloxy)-phenyl]-2-(2,6-dichloro-phenyl)-acetamide] | 59 | 346 | > 10000 | 63 | > 10000 | 663 | > 10000 | 1930 | > 10000 | > 10000 | – |
| Cc1ccc(NC(=O)Nc2ccc(Oc3cc(N4CCN(C(=O)OC(C)(C)C)C[C@H]4C)ncn3)cc2)cc1C(F)(F)F [Example 100, (R)-3-methyl-4-(6-(4-(3-(4-methyl-3-(trifluoromethyl)phenyl)ureido)phenoxy)pyrimidin-4-yl)piperazin-1-tert-butyl Formate] | 63 | 342 | 5820 | 30 | 8080 | 600 | 9010 | 1660 | 1520 | – | – |
| CC(=O)Nc1cc(Oc2ccc(NC(=O)Cc3ccccc3I)cc2)ncn1 [Example 4, N-[4-(6-acetylamino-pyrimidin-4-yloxy)-phenyl]-2-(2-iodo-phenyl)-acetamide] | 13 | 48 | > 10000 | 61 | > 10000 | 667 | > 10000 | 734 | > 10000 | > 10000 | – |
| Cc1ccc(NC(=O)Nc2ccc(Oc3cc(N4CCNC[C@H]4C)ncn3)cc2)cc1C(F)(F)F [Example 105, (R)-1-(4-methyl-3-(trifluoromethyl)phenyl)-3-(4-((6-(2-methylpiperazin-1-yl)pyrimidin-4-yl)oxy)phenyl)urea] | 14 | 195 | 2750 | 86 | 2160 | 200 | 9670 | 323 | 990 | – | – |
| Cc1ccc(NC(=O)Nc2ccc(Oc3cc(N4CCNCC4C)ncn3)cc2)cc1C(F)(F)F (stereo not drawn) [Example 104, 1-{4-[6-(2-methyl-piperazin-1-yl)-pyrimidin-4-yloxy]-phenyl}-3-(4-methyl-3-trifluoromethyl-phenyl)-urea] | 14 | 173 | 3620 | 290 | 5130 | 670 | 8480 | 2890 | 1800 | – | – |
| Cc1ccc(NC(=O)Nc2ccc(Oc3cc(NC4CCN(C(=O)OC(C)(C)C)CC4)ncn3)cc2)cc1C(F)(F)F [Example 99, 4-(6-{4-[3-(4-methyl-3-trifluoromethyl-phenyl)-ureido]-phenoxy}-pyrimidin-4-ylamino)-piperidin-1-tert-butyl Formate] | 14 | 277 | 4600 | 17 | 990 | 66 | > 10000 | 202 | 340 | – | – |
| CNC(=O)c1cc(Oc2ccc(NC(=O)Nc3ccc(Cl)c(C(F)(F)F)c3)cc2)ccn1 [Sorafenib, reference compound] | 0.6 | 35 | 365 | 0.3 | 112 | 0.9 | 6990 | – | 58 | 3830 | strongly inhibits |

From patent US11602534B2, “Pyrimidine derivative kinase inhibitors” (HEFEI INSTITUTES OF PHYSICAL SCIENCE, CHINESE ACADEMY OF …, priority 2017, dated 2023)
